Legend:
[1] = target: T1, P. aeruginosa Alg44PilZ (His-MBP-Alg44PilZ) (Pseudomonas aeruginosa, UniProt Q9HY69); experiment: biochemical; type: binding
T1 construct: His-MBP-Alg44PilZ was varied from 100 μM to 6 nM; made in house; host or cells: E. coli BL21(DE3)
Description: DRaCALA exploits the ability of nitrocellulose membranes to preferentially sequester proteins over small molecule ligands. When a mixture of protein and radiolabeled ligand is spotted onto a dry nitrocellulose membrane, protein and bound ligand are immobilized at the site of contact while free ligand is mobilized by capillary action with the liquid phase (FIG. 1A). DRaCALA is a rapid assay, as the capillary action can be completed in less than 5 seconds. […] Because capillary action distributes the unbound ligand throughout the mobile phase, the calculation for the fraction bound (FB) can be corrected for this background (see below for edge effects at the solvent front and annulation of the protein). Therefore, FB is defined by the equation in FIG. 1B, where Iinner is the intensity of signal in the area with protein (inner circle) and Itotal is the total signal of the entire sample (outer circle). The Iinner signal consists of both ligand bound to protein and unbound ligand that has not mobilized beyond the area of the inner circle, which we define as Ibackground. Ibackground can be calculated by subtracting the signal intensity of the Iinner from the total ligand Itotal and adjusting for the relative areas of the inner (Ainner) and outer circles (Atotal) (FIG. 1B).
Radiolabeled ligands were incubated with each of the proteins and the mixtures were spotted on nitrocellulose. After spreading by capillary action, membranes were dried and quantitated by phosphorimager. […] The specificity of Alg44PilZ binding to cdiGMP was further tested by competition with excess unlabeled nucleotides (400-fold molar excess relative to the Alg44PilZ protein).
Kd can be measured by altering either the protein or ligand concentrations in titration experiments; since DRaCALA detects only the ligand mobility, ligand concentrations can be always held constant. […] Since the assay is completed in less than 5 seconds, DRaCALA can also be used to determine the koff for those protein-ligand complexes with slower off rates. koff was determined for cdiGMP and Alg44PilZ by spotting at the indicated time points after the addition of 1 mM unlabeled cdiGMP to a pre-incubated mixture of Alg44PilZ and ^32P-cdiGMP (FIG. 3C). […] Both edge and annulation effects are explained in FIG. 8. The edge effect is due to evaporation of the solvent during the time of the experiment, and is dependent on the humidity of the local environment around the nitrocellulose support. The evaporation results in a smaller total area (Atotal observed in FIG. 8A) and leads to an increased value in the calculated Ibackground. As a secondary correction for the edge effect, the fraction bound determined for spotted ligand in the absence of protein can be subtracted from all samples in parallel (FIG. 8B).

PelD = experiment: DRaCALA of whole cell lysates of E. coli BL21(DE3) expressing PelD; type: binding, P. aeruginosa; conditions: PelD with or without MBP tag
Experimental: FIG. 10. Binding of cdiGMP to whole cell lysates expressing soluble or insoluble cdiGMP binding proteins. (A) BL21(DE3) cells expressing the indicated proteins were analyzed by PAGE and coomassie staining of whole cell (W) and soluble (S) fractions. Arrows indicate the overexpressed protein of the correct molecular weight in whole cell lysates. Molecular weights of proteins are indicated on the left in kilodaltons. (B) Spots of BL21 cells overexpressing the indicated proteins were assayed for cdiGMP binding by DRaCALA. (C) Quantification of the data shown in (B). (D) Binding of ^32P-cdiGMP to various dilutions of lysates of BL21(DE3) cells expressing the indicated proteins.
A major limitation of most biochemical assays is the requirement for purified protein. We asked whether DRaCALA could be applied to crude extracts to overcome this limitation. Alg44PilZ binding to cdiGMP requires a number of conserved residues, including R17, R21, D44 and S46, in the PilZ domain of the protein. E. coli BL21(DE3) expressing Alg44PilZ and variants with R21A, D44A, S46A, and R17A/R21A substitutions were lysed and tested for binding to cdiGMP using DRaCALA. […] A significant difference between the bound fractions for cdiGMP or GTP competition experiments was detected for the wild-type Alg44PilZ, but not for the PilZ domain mutants (FIGS. 4A and 4B). […]

T1 sequence (Q9HY69 16-116): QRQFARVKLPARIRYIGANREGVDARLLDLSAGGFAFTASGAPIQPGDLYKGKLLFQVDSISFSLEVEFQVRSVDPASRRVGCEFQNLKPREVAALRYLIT

SMILES: Nc1nc2c(ncn2[C@@H]2O[C@@H]3CO[P@](=O)(O)O[C@H]4[C@@H](O)[C@H](n5cnc6c(=O)[nH]c(N)nc65)O[C@@H]4CO[P@](=O)(O)O[C@H]3[C@H]2O)c(=O)[nH]1 [cdiGMP, cyclic-di-GMP]
- Kd [1]: 1.6 µM
- koff [1]: 0.017 ± 0.002 s⁻¹
- binding to Alg44PilZ (sequestration of radiolabel signal) ([1]; 20 μM purified protein, 500 nM 14C-cAMP, 4 nM 32P-ATP or 4 nM 32P-cdiGMP): bound
- time until 32P-cdiGMP binding completely competed away ([1]; 1 mM unlabeled cdiGMP): ≤ 90 s
- half-life (t1/2) ([1]; corresponding to koff, DRaCALA): 35.6 ± 10.7 s
- specific sequestration by whole cell extracts with soluble or insoluble protein (PelD): specifically sequester
